Biological target: T1, Ap4A-phosphorylase (Saccharomyces cerevisiae, UniProt P16550)
T1 construct: l'Ap4A phosphorylase est constituée d'une seule chaîne; endogenous in cells; host or cells: Saccharomyces cerevisiae yeast cells; enzyme purified by ammonium sulfate, DEAE-Sephacel, Sephadex G-100, hydroxyapatite and Sephadex G-75 superfine
T1 sequence (P16550 1-321): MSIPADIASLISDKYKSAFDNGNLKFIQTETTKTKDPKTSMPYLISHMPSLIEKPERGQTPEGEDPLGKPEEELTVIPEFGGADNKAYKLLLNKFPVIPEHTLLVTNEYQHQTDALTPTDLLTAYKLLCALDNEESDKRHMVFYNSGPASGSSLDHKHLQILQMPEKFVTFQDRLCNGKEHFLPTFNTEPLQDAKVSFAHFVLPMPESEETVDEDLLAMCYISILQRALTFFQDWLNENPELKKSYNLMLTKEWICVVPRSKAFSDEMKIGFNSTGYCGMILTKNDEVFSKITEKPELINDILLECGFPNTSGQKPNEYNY
Assay: NDP-P* exchange reaction catalysed by Ap4A-phosphorylase
Type: biochemical
Conditions: AMPS versus ADP
Source text: On a estimé les constantes de Michaelis Km et les vitesses d'échange pour différents NDP au pH optimum, lequel varie en fonction des substrats. Les résultats obtenus sont rassemblés dans le tableau Il ci-après ainsi que les conditions expérimentales.

Nc1ncnc2c1ncn2[C@@H]1O[C@H](COP(=O)(O)OS(=O)(=O)O)[C@@H](O)[C@H]1O [AMPS, adénosine 5'-phosphosulfate]
rapport V/km, fold higher than for ADP: ~5 fois

Source: EP0194905A1, “5',5'''-P1,P4-diadenosine-tetraphosphate alpha-,beta-phosphorylase and its use in the preparation of isotope-labelled nucleotides” (priority 1985, dated 1986)
